Earlier results on 3 compounds are cited in patent publication US9498539B2, “Affinity-based controlled release system” (priority 2012, dated 2016).

Read-outs that look alike come from different tables or passages of the source.

One data set deals with Streptavidin (Streptomyces avidinii, UniProt P22629). Conditions: streptavidin binds 2-iminobiotin, medium affinity; cited from earlier work.
The conditions of data set [1]: 24 h; cited from earlier work.
Data set [2] deals with Src homology 3 domain (SH3) (Saccharomyces cerevisiae, UniProt P15891). To be noted: read-out: Kd (affinity to SH3), SH3-binding peptide to SH3, not part of the composition, cited from earlier work.
Sequence of Src homology 3 domain (SH3) (P15891 532-592 limits assumed): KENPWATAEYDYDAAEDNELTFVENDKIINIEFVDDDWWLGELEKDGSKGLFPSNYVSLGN

Sequence of Streptavidin (P22629 25-183): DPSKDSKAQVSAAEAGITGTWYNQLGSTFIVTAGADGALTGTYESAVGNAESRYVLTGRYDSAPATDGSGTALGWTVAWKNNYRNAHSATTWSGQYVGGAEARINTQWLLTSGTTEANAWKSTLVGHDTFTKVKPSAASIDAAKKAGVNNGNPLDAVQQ

For the compound `N=C1N[C@H]2[C@H](CS[C@H]2CCCCC(=O)O)N1` [2-iminobiotin], the Kd at Streptavidin is 12.5 µM.

For the compound “FGF-2: basic fibroblast growth factor, literature data of Nakamura et al.”, the remaining bioactivity in data set [1] is less than 10%.

Take KPPVVKKPHYLS [compound 4]: the Kd is 27 µM in data set [2] and 10 µM in data set [2] (listed as weak binder).

What is called Kd is the constant that tells how readily two partners part at equilibrium.
